In patent publication US20170190671A1, “BIS(ARYL)CATECHOL DERIVATIVES AS HERBICIDES” (E I DU PONT DE NEMOURS AND COMPANY, priority 2014, published 2017):

Experiments:
Assay type in all cases: in vivo
[1] = system: barnyardgrass (Echinochloa crus-galli); assay: Test B flooded paddy; details: Echinochloa crus-galli, 336 h; 250 g ai/ha, Flood, 13 to 15 days, scale 0 (no effect) to 100 (complete control); read-out: Plant response rating, Barnyardgrass
How it was run: (§1)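 Ratings were visual and made relative to untreated controls after 13 to 15 greenhouse days.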

[2] = system: ducksalad (Heteranthera limosa); assay: Test B flooded paddy; details: Heteranthera limosa, 336 h; 250 g ai/ha, Flood, 13 to 15 days, scale 0 (no effect) to 100 (complete control); read-out: Plant response rating, Ducksalad
How it was run: as §1

rice (Oryza sativa) = assay: Test B flooded paddy; details: Oryza sativa, 336 h; 250 g ai/ha, Flood, 13 to 15 days, scale 0 (no effect) to 100 (complete control); read-out: Plant response rating, Rice
How it was run: as §1

[3] = system: sedge, umbrella (small-flower umbrella sedge, Cyperus difformis); assay: Test B flooded paddy; details: Cyperus difformis, 336 h; 250 g ai/ha, Flood, 13 to 15 days, scale 0 (no effect) to 100 (complete control); read-out: Plant response rating, Sedge, Umbrella
How it was run: as §1

[4] = system: Italian ryegrass (Lolium multiflorum); assay: Test A preemergence; details: Lolium multiflorum, pre-emergence, 240 h
How it was run: (§2)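 Pre- and postemergence greenhouse screen. Soil: loam + sand. Spray carrier: solvent mixture, non-phytotoxic, with surfactant. Post timing at 1–2 leaves, height 2–10 cm. Readout: visual injury on a 0–100 scale roughly 10 days after application, untreated plants as reference.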

[5] = system: barnyardgrass (Echinochloa crus-galli); assay: Test A preemergence; details: Echinochloa crus-galli, pre-emergence, 240 h
How it was run: as §2

[6] = system: giant foxtail (Setaria faberii); assay: Test A preemergence; details: Setaria faberi, pre-emergence, 240 h
How it was run: as §2

kochia (Kochia scoparia) [7] = assay: Test A preemergence; details: Bassia scoparia, pre-emergence, 240 h
How it was run: as §2

[8] = system: pigweed (Amaranthus retroflexus); assay: Test A preemergence; details: Amaranthus retroflexus, pre-emergence, 240 h
How it was run: as §2

[9] = system: ragweed (common ragweed, Ambrosia elatior); assay: Test A preemergence; details: Ambrosia artemisiifolia, pre-emergence, 240 h
How it was run: as §2

[10] = system: Italian ryegrass (Lolium multiflorum); assay: Test A postemergence; details: Lolium multiflorum, post-emergence, 240 h, 0 to 100 scale, read-out: Plant response rating, Ryegrass, Italian
How it was run: as §2

[11] = system: barnyardgrass (Echinochloa crus-galli); assay: Test A postemergence; details: Echinochloa crus-galli, post-emergence, 240 h, 0 to 100 scale, read-out: Plant response rating, Barnyardgrass
How it was run: as §2

[12] = system: blackgrass (Alopecurus myosuroides); assay: Test A postemergence; details: Alopecurus myosuroides, post-emergence, 240 h, 0 to 100 scale, read-out: Plant response rating, Blackgrass
How it was run: as §2

corn (Zea mays) = assay: Test A postemergence; details: Zea mays, post-emergence, 240 h, 0 to 100 scale
How it was run: as §2

[13] = system: galium (catchweed bedstraw, Galium aparine); assay: Test A postemergence; details: Galium, post-emergence, 240 h, 0 to 100 scale, read-out: Plant response rating, Galium
How it was run: as §2

[14] = system: giant foxtail (Setaria faberii); assay: Test A postemergence; details: Setaria faberi, post-emergence, 240 h, 0 to 100 scale, read-out: Plant response rating, Foxtail, Giant
How it was run: as §2

kochia (Kochia scoparia) [15] = assay: Test A postemergence; details: Bassia scoparia, post-emergence, 240 h, 0 to 100 scale, read-out: Plant response rating, Kochia
How it was run: as §2

[16] = system: pigweed (Amaranthus retroflexus); assay: Test A postemergence; details: Amaranthus retroflexus, post-emergence, 240 h, 0 to 100 scale, read-out: Plant response rating, Pigweed
How it was run: as §2

[17] = system: ragweed (common ragweed, Ambrosia elatior); assay: Test A postemergence; details: Ambrosia artemisiifolia, post-emergence, 240 h, 0 to 100 scale, read-out: Plant response rating, Ragweed
How it was run: as §2

[18] = system: wheat (Triticum aestivum); assay: Test A postemergence; details: Triticum aestivum, post-emergence, 240 h, 0 to 100 scale, read-out: Plant response rating, Wheat
How it was run: as §2

N#Cc1cccc(Oc2ncc(Br)cn2)c1Oc1ccc(Cl)cn1 [Compound 11]
pest or weed control at 250 g/ha [1]: 0% | pest or weed control at 250 g/ha [2]: 100% | plant injury at 250 g/ha (rice (Oryza sativa)): 0% | pest or weed control at 250 g/ha [3]: 85% | pest or weed control at 31 g/ha ([4]; 31 g ai/ha, 0 to 100 scale (0 no effect, 100 complete control), read-out: Ryegrass, Italian plant response rating): 0% | pest or weed control at 125 g/ha ([4]; 125 g ai/ha, 0 to 100 scale, read-out: Plant response rating, Ryegrass, Italian): 10% | pest or weed control at 500 g/ha ([4]; 500 g ai/ha, 0 to 100 scale, read-out: Plant response rating, Ryegrass, Italian): 90% | pest or weed control at 31 g/ha ([5]; 31 g ai/ha, 0 to 100 scale (0 no effect, 100 complete control), read-out: Barnyardgrass plant response rating): 0% | pest or weed control at 125 g/ha ([5]; 125 g ai/ha, 0 to 100 scale, read-out: Plant response rating, Barnyardgrass): 80% | pest or weed control at 500 g/ha ([5]; 500 g ai/ha, 0 to 100 scale, read-out: Plant response rating, Barnyardgrass): 100% | pest or weed control at 31 g/ha ([6]; 31 g ai/ha, 0 to 100 scale (0 no effect, 100 complete control), read-out: Foxtail, Giant plant response rating): 20% | pest or weed control at 125 g/ha ([6]; 125 g ai/ha, 0 to 100 scale, read-out: Plant response rating, Foxtail, Giant): 100% | pest or weed control at 500 g/ha ([6]; 500 g ai/ha, 0 to 100 scale, read-out: Plant response rating, Foxtail, Giant): 100% | pest or weed control at 31 g/ha (kochia (Kochia scoparia) [7]; 31 g ai/ha, 0 to 100 scale (0 no effect, 100 complete control), read-out: Kochia plant response rating): 10% | pest or weed control at 125 g/ha (kochia (Kochia scoparia) [7]; 125 g ai/ha, 0 to 100 scale, read-out: Plant response rating, Kochia): 75% | pest or weed control at 500 g/ha (kochia (Kochia scoparia) [7]; 500 g ai/ha, 0 to 100 scale, read-out: Plant response rating, Kochia): 100% | pest or weed control at 31 g/ha ([8]; 31 g ai/ha, 0 to 100 scale (0 no effect, 100 complete control), read-out: Pigweed plant response rating): 90% | pest or weed control at 125 g/ha ([8]; 125 g ai/ha, 0 to 100 scale, read-out: Plant response rating, Pigweed): 100% | pest or weed control at 500 g/ha ([8]; 500 g ai/ha, 0 to 100 scale, read-out: Plant response rating, Pigweed): 100% | pest or weed control at 31 g/ha ([9]; 31 g ai/ha, 0 to 100 scale (0 no effect, 100 complete control), read-out: Ragweed plant response rating): 0% | pest or weed control at 125 g/ha ([9]; 125 g ai/ha, 0 to 100 scale, read-out: Plant response rating, Ragweed): 0% | pest or weed control at 500 g/ha ([9]; 500 g ai/ha, 0 to 100 scale, read-out: Plant response rating, Ragweed): 10% | pest or weed control at 31 g/ha ([10]; 31 g ai/ha): 0% | pest or weed control at 125 g/ha ([10]; 125 g ai/ha): 25% | pest or weed control at 500 g/ha ([10]; 500 g ai/ha): 90% | pest or weed control at 31 g/ha ([11]; 31 g ai/ha): 0% | pest or weed control at 125 g/ha ([11]; 125 g ai/ha): 80% | pest or weed control at 500 g/ha ([11]; 500 g ai/ha): 100% | pest or weed control at 31 g/ha ([12]; 31 g ai/ha): 10% | pest or weed control at 125 g/ha ([12]; 125 g ai/ha): 90% | pest or weed control at 500 g/ha ([12]; 500 g ai/ha): 100% | Corn plant response rating (crop injury, 0 = no effect, 100 = complete kill) at 31 g/ha (corn (Zea mays); 31 g ai/ha): 10% | Corn plant response rating (crop injury, 0 = no effect, 100 = complete kill) at 125 g/ha (corn (Zea mays); 125 g ai/ha): 30% | Corn plant response rating (crop injury, 0 = no effect, 100 = complete kill) at 500 g/ha (corn (Zea mays); 500 g ai/ha): 100% | pest or weed control at 31 g/ha ([13]; 31 g ai/ha): 70% | pest or weed control at 125 g/ha ([13]; 125 g ai/ha): 100% | pest or weed control at 500 g/ha ([13]; 500 g ai/ha): 100% | pest or weed control at 31 g/ha ([14]; 31 g ai/ha): 0% | pest or weed control at 125 g/ha ([14]; 125 g ai/ha): 95% | pest or weed control at 500 g/ha ([14]; 500 g ai/ha): 100% | pest or weed control at 31 g/ha (kochia (Kochia scoparia) [15]; 31 g ai/ha): 40% | pest or weed control at 125 g/ha (kochia (Kochia scoparia) [15]; 125 g ai/ha): 95% | pest or weed control at 500 g/ha (kochia (Kochia scoparia) [15]; 500 g ai/ha): 100% | pest or weed control at 31 g/ha ([16]; 31 g ai/ha): 100% | pest or weed control at 125 g/ha ([16]; 125 g ai/ha): 100% | pest or weed control at 500 g/ha ([16]; 500 g ai/ha): 100% | pest or weed control at 31 g/ha ([17]; 31 g ai/ha): 0% | pest or weed control at 125 g/ha ([17]; 125 g ai/ha): 10% | pest or weed control at 500 g/ha ([17]; 500 g ai/ha): 10% | plant injury at 31 g/ha ([18]; 31 g ai/ha): 20% | plant injury at 125 g/ha ([18]; 125 g ai/ha): 50% | plant injury at 500 g/ha ([18]; 500 g ai/ha): 90%
